# Measured values: patent US12268683B2, “Compounds and methods for synergistic activation of M channels” (THE REGENTS OF THE UNIVERSITY OF CALIFORNIA, priority 2018, dated 2025)
# Target: KCNQ2-W236L/KCNQ3-W265L (Homo sapiens, UniProt O43525+O43526, W236L/W265L)
# Experiment: TEVC of double-mutant WL/WL KCNQ2/3 channels
# Format: cell-based
# From the text: cRNA transcripts encoding human KCNA1, KCNQ1, KCNQ2, KCNQ3, KCNQ4, or KCNQ5 were generated by in vitro transcription using the T7 polymerase message machine kit (Thermo Fisher Scientific), after vector linearization, from cDNA sub-cloned into plasmids incorporating X. laevis β-globin 5′ and 3′ UTRs flanking the coding region to enhance translation and cRNA stability. cRNA was quantified by spectrophotometry. Mutant cDNAs were generated by site-directed mutagenesis using a QuikChange kit according to manufacturer's protocol (Stratagene, San Diego, Calif.) and corresponding cRNAs prepared as above. Defolliculated stage V and VI X. laevis oocytes (Ecocyte Bioscience, Austin, Tex.) were injected with Kv channel a subunit cRNAs (10 ng total per oocyte). Oocytes were incubated at 16° C. in Barth's saline solution (Ecocyte) containing penicillin and streptomycin, with daily washing, for 3-5 days prior to two-electrode voltage-clamp (TEVC) recording.
# TEVC recording was performed at room temperature with an OC-725C amplifier (Warner Instruments, Hamden, Conn.) and pClamp10.2 software (Molecular Devices, Sunnyvale, Calif.) 3-5 days after cRNA injection as described in the section above. Oocytes were placed in a small-volume oocyte bath (Warner) and viewed with a dissection microscope. Chemicals were sourced from Sigma. Bath solution was (in mM): 96 NaCl, 4 KCl, 1 MgCl2, 1 CaCl2. 10 HEPES (pH 7.6). […] Currents were recorded in response to pulses between −80 and +40 mV at 20 mV intervals, or a single pulse to +40 mV, from a holding potential of −80 mV, to yield current-voltage relationships, current magnitude, and for quantifying activation rate. […]
# cRNA transcripts encoding human KCNQ2, KCNQ3, KCNQ4, KCNQ5 (Kv7.2-Kv7.5) were generated by in vitro transcription using the T7 polymerase mMessage mMachine kit (Thermo Fisher Scientific), after vector linearization, from cDNA sub-cloned into plasmids incorporating Xenopus laevis β-globin 5′ and 3′ UTRs flanking the coding region to enhance translation and cRNA stability. cRNA was quantified by spectrophotometry. […]
Structure (SMILES),augmentation of WL/WL KCNQ2/3 current,"reduction of MTX potency (negative shift in voltage dependence) by W/L mutation (KCNQ2-W236L or KCNQ3-W265L, or both)"
"NCC1(CC(=O)O)CCCCC1 [gabapentin, reference compound]",≤ 50%,–
"CC(=O)c1c(O)c(C)c(O)c(Cc2c(O)c3c(c(C(=O)/C=C/c4ccccc4)c2O)OC(C)(C)C=C3)c1O [MTX, mallotoxin]",–,tenfold
